Experimental findings from US20190314312A1, “COMBINATION THERAPY TO INCREASE ENDOGENOUS NITRIC OXIDE (NO) SYNTHESIS” (Yeda Research and Development Co. Ltd., priority 2016, published 2019) are described below.

Assay type in all cases: in vivo, mouse
In assay [1] the test system is Ass1. Kind of assay: Immunohistochemistry staining of distal colon sections for Ass1. Particulars: after colitis induction, fisetin treatment, FIG. 4A.
Assay [2] relates to enterocytes. Kind of assay: FACS analysis of colon epithelial cells (enterocytes) after colitis induction. The protocol:
Colon segment was flushed with cold PBS, longitudinally cut open and rinsed to remove residual luminal contents. Tissue was cut into 3- to 5-mm pieces and incubated in HBSS medium containing EDTA 0.5 M and Hepes 10 mM at 37° C. for 20 minutes, shaken at 180 rpm, to separate epithelial fraction. Supernatant was centrifuged at 4° C. at 500 g for 10 minutes. Recovered tissue was digested in HBSS medium with 2% fetal bovine serum (FBS), 0.05% collagenase II and 0.05% DNase I (Sigma) for 40 minutes. at 37° C., shaken at 180 rpm. LP cells were filtered through 65 μm mesh and centrifuged at 4° C. at 500 g for 10 minutes. The present inventors prepared single cell suspensions from mouse colon by enzymatic digestion and analyzed by polychromatic flow cytometry. Samples were stained with conjugated antibodies or matching isotype controls according to manufacturer's instructions. Data were acquired on an LSRII (BD Biosciences) or FACSCalibur instrument (Becton-Dickinson) with CellQuest software, with a MacsQuant instrument (Miltenyi, Bergisch Gladbach, Germany), and analyzed using BD FACSDiva 6 or FlowJo software (version 7.6.5, or version vX.0.7 Tree Star Inc) or MacsQuant. Colon cells were stained for 30 min at 4° C. in flow cytometry buffer (PBS, 10% FCS and 0.02% azide). For antigens that require intracellular staining (As1, iNOS and S-nitrosocystein), cell surface staining was followed by cell fixation and permeabilization with the Cytofix/Cytoperm kit (BD Biosciences) according to the manufacturer's instructions. For staining, the present inventors used a lineage cocktail of antibodies anti-CD45-APC, Anti-CD64-PE, Anti-CD11c-PB, Anti-326-APC cy7, Anti CD31-PE cy7 (all from BioLegend). After staining for cell surface antigens, intracellular NO was detected by incubation of cells for 15 min at 37° C. with 10 μM DAF-FM diacetate followed by extensive washing, according to the manufacturer's instructions (Molecular Probes). Staining without addition of the DAF-FM probe was considered to be the baseline for gating the positive population. As1 was detected using anti-As1-ALEXA FLUOR® 488 (BD Biosciences), iNOS using anti-iNOS followed by anti-rat 488 (Jackson ImmunoResearch), and nitrosylation using anti-S-nitrosocystein (from abcam) followed by anti-mouse 488 (Jackson ImmunoResearch).

In assay [3] the test system is CD45+ immune system cells. Kind of assay: FACS analysis of colon CD45+ immune system cells after colitis induction. The conditions noted are these: fisetin vs control after colitis induction, FIGS. 14A-C. The protocol:
Colon segment was flushed with cold PBS, longitudinally cut open and rinsed to remove residual luminal contents. Tissue was cut into 3- to 5-mm pieces and incubated in HBSS medium containing EDTA 0.5 M and Hepes 10 mM at 37° C. for 20 minutes, shaken at 180 rpm, to separate epithelial fraction. Supernatant was centrifuged at 4° C. at 500 g for 10 minutes. Recovered tissue was digested in HBSS medium with 2% fetal bovine serum (FBS), 0.05% collagenase II and 0.05% DNase I (Sigma) for 40 minutes. at 37° C., shaken at 180 rpm. LP cells were filtered through 65 μm mesh and centrifuged at 4° C. at 500 g for 10 minutes. The present inventors prepared single cell suspensions from mouse colon by enzymatic digestion and analyzed by polychromatic flow cytometry. […] Data were acquired on an LSRII (BD Biosciences) or FACSCalibur instrument (Becton-Dickinson) with CellQuest software, with a MacsQuant instrument (Miltenyi, Bergisch Gladbach, Germany), and analyzed using BD FACSDiva 6 or FlowJo software (version 7.6.5, or version vX.0.7 Tree Star Inc) or MacsQuant. […] After staining for cell surface antigens, intracellular NO was detected by incubation of cells for 15 min at 37° C. with 10 μM DAF-FM diacetate followed by extensive washing, according to the manufacturer's instructions (Molecular Probes). […]

Assay [4] concerns C57BL/6J.OlaaHsd mice. Kind of assay: DSS-induced colitis, treatment with arginine, citrulline, NaNO2, fisetin or citrulline plus fisetin. The conditions noted are these: day 12; fisetin, citrulline or both vs DMSO control; FIG. 4C.
In assay [5] the test system is enterocytes CKO mice. Kind of assay: DSS colitis (0.8% DSS) in enterocytes CKO mice, fisetin or NaNO2. The conditions noted are these: 0.8% DSS 5 days, fisetin 1 mg IP twice, FIGS. 4L-N. How it is done: Colitis was induced on C57BL/6J.OlaaHsd mice. Mice were treated with 1% DSS for 6 days, followed by administration of either fiselin (1 mg in 30 μl DMSO IP, twice, in 3 days interval) citrulline 1% (wt/vol) solution in drinking water, the combination of both treatments or only DMSO as a control (30 μl DMSO IP, twice, in 3 days interval). […] FIGS. 4L-N—Colitis was induced on enterocytes CKO mice and compared to controls. Mice were treated with 0.8% DSS for 5 days, followed by administration with either NO donors; NaNO2 (100 mg/kg) or fisetin (1 mg in 30 μl DMSO IP, twice, in 3 days interval). […] Note that colitis severity is reduced by activating As1 in enterocytes, by citrulline and fisetin supplementation.
Colitis was induced in Vav1^Cre:As1^f/f mice and CD11c^Cre:As1^f/f with 1.5% DSS and with 0.8% DSS in the Villin^Cre:As1^f/f (wt/vol), (Dextran Sodium Sulfate, MP Biomedicals; molecular weight 36,000-50,000 Da). […]
Colonoscopy was performed on days 7 and 11 of the experiment to monitor for severity of colitis. […] The endoscopic procedure was viewed on a color monitor and digitally recorded on tape. Colitis was scored according to the Murine endoscopic index of colitis severity (MEICS), considering differences in the thickness of the bowel wall, changes in blood vessel integrity, mucosal surface, stool consistency or the presence of fibrin, scored each between 0 and 3. […]

Entries after “also recorded” stand apart in the source; their conditions may differ.

As to `O=c1c(O)c(-c2ccc(O)c(O)c2)oc2cc(O)ccc12` [fisetin, 3,7, 3′, 4′-tetrahydroxyflavone], the “Ass1 expression in distal colon sections (enterocytes)” value is recorded as “up regulation” in assay [1] and “upregulated” in assay [1] (listed as fesitin). Moreover, in assay [2] (after colitis induction, treated vs control, FIGS. 3F-J, 4F-I), the “NO levels in enterocytes (colon epithelial cells)” value is given as “increased; also recorded: significant increase”. Further, the “iNOS expression in enterocytes (colon cells)” value in assay [2] (fisetin vs control after colitis induction, FIGS. 4J-K) is on record as “increased; also recorded: significant increase”. Besides, the “ASL levels in enterocytes” value in assay [2] (fisetin, FIGS. 4H-L) was “increase”. The As1 levels result in assay [3] is recorded as “decrease”. The iNOS levels result in assay [3] is recorded as “not in the intestinal immune cells; also recorded: decrease”. Moreover, the endoscopic colitis score result in assay [4] is “significant improvement”. Further, the “effect of treatment on colitis (survival, body weight gain, colitis score)” value is “did not have an effect” in assay [5] and “not in the enterocytes CKO mice” in assay [5] (listed as Fisetin).
